Our source for the IC50 values is US8299056B2 (Signal Pharmaceuticals, LLC, priority 2008, dated 2012).

Molecules are shown by their SMILES.

One assay addresses T1, Syk (Homo sapiens, UniProt P43405).
T1 construct: purchased Carna Biosciences
As to the kind of experiment: Syk HTRF assay. It is filed as biochemical. To be noted: activity levels A-D, read-out: Activity Level (IC50 in the Syk HTRF assay). The procedure, abridged:
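Read-out is the 665 nm/615 nm time-resolved fluorescence ratio after EDTA stop and Eu-anti-phosphotyrosine plus streptavidin-DyLight 647 detection. Reaction ran 1 h at room temperature with start mix of 87.5 μM ATP and 80 nM substrate peptide in pH 7.6 HEPES/MgCl2 buffer.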
As to `Cc1n[nH]c2cc(Nc3nc4cccc(CC5CCOCC5)n4n3)ccc12` [Example 199, N-(3-methyl-1H-indazol-6-yl)-5-((tetrahydro-2H-pyran-4-yl)methyl)-[1,2,4]triazolo[1,5-a]pyridin-2-amine], the IC50 lay within 0.005 to 250 nM. Take `Cc1n[nH]c2cc(Nc3nc4cccc(C(O)C5CCOCC5)n4n3)ccc12` (stereo not shown) [Example 200, (2-(3-methyl-1H-indazol-6-ylamino)-[1,2,4]triazolo[1,5-a]pyridin-5-yl)(tetrahydro-2H-pyran-4-yl)methanol]: the IC50 fell in the range of 500 to 1000 nM.

For the compound `CC1(C)C(=O)Nc2cc(Nc3nc4cccc(N[C@H]5CC[C@@H](O)CC5)n4n3)ccc21` [Example 202, cis-6-(5-(4-hydroxycyclohexylamino)-[1,2,4]triazolo[1,5-a]pyridin-2-ylamino)-3,3-dimethylindolin-2-one], the IC50 fell in the range of 0.005 to 250 nM. In the case of `O=C1NCCc2cc(Nc3nc4cccc(N[C@H]5CC[C@@H](O)CC5)n4n3)ccc21` [Example 203, cis-6-(5-(4-hydroxycyclohexylamino)-[1,2,4]triazolo[1,5-a]pyridin-2-ylamino)-3,4-dihydroisoquinolin-1(2H)-one], the half-inhibitory concentration (IC50) fell in the range of 0.005 to 250 nM. The same measure, in the same setting: in the case of `Cc1cc(Nc2nc3cccc(N[C@H]4CC[C@@H](O)CC4)n3n2)cc2[nH]ncc12` [Example 204, cis-4-(2-(4-methyl-1H-indazol-6-ylamino)-[1,2,4]triazolo[1,5-a]pyridin-5-ylamino)cyclohexanol] it was 0.005 to 250 nM; in that of `O=C1NCC[C@H]1NCc1cccc2nc(Nc3ccc(C(F)(F)F)cc3)nn12` [Example 205, (R)-3-((2-(4-(trifluoromethyl)phenylamino)-[1,2,4]triazolo[1,5-a]pyridin-5-yl)methylamino)pyrrolidin-2-one], 1000 to 10000 nM; in that of `O=C1c2cc(Nc3nc4cccc(N[C@H]5CC[C@@H](O)CC5)n4n3)ccc2CN1CCO` [Example 206, cis-6-(5-(4-hydroxycyclohexylamino)-[1,2,4]triazolo[1,5-a]pyridin-2-ylamino)-2-(2-hydroxyethyl)isoindolin-1-one], 1000 to 10000 nM. As for `Nc1n[nH]c2cc(Nc3nc4cccc(CC5CCC(O)CC5)n4n3)ccc12` (stereo not shown) [Example 208, 4-((2-(3-amino-1H-indazol-6-ylamino)-[1,2,4]triazolo[1,5-a]pyridin-5-yl)methyl)cyclohexanol], the IC50 lay within 0.005 to 250 nM. As to `Cc1n[nH]c2cc(Nc3nc4cccc(NC5CCOCC5)n4n3)ccc12` [Example 209, N^2-(3-methyl-1H-indazol-6-yl)-N^5-(tetrahydro-2H-pyran-4-yl)-[1,2,4]triazolo[1,5-a]pyridin-2,5-diamine], the IC50 was in the range of 0.005 to 250 nM. In the case of `COCCOc1cc(Nc2nc3cccc(N[C@H]4CC[C@@H](O)CC4)n3n2)ccc1F` [Example 210, cis-4-(2-(4-fluoro-3-(2-methoxyethoxy)phenylamino)-[1,2,4]triazolo[1,5-a]pyridin-5-ylamino)cyclohexanol], the half-maximal inhibitory concentration (IC50) fell in the range of 0.005 to 250 nM.

On to `CC(c1cc[nH]c(=O)c1)c1cccc2nc(Nc3ccc(C(F)(F)F)cc3)nn12` (stereo not shown) [Example 211, 4-(1-(2-(4-(trifluoromethyl)phenylamino)-[1,2,4]triazolo[1,5-a]pyridin-5-yl)ethyl)pyridin-2(1H)-one], for which the half-maximal inhibitory concentration (IC50) was in the range of 0.005 to 250 nM. In the case of `CNC(=O)CNCc1cccc2nc(Nc3ccc(C(F)(F)F)cc3)nn12` [Example 213, N-methyl-2-((2-(4-(trifluoromethyl)phenylamino)-[1,2,4]triazolo[1,5-a]pyrridin-5-yl)methylamino)acetamide], the half-inhibitory concentration (IC50) is 1000 to 10000 nM.

Regarding `Cc1n[nH]c2cc(Nc3nc4cccc(N5CC(O)C5)n4n3)ccc12` [Example 215, 1-(2-(3-methyl-1H-indazol-6-ylamino)-[1,2,4]triazolo[1,5-a]pyridin-5-yl)azetidin-3-ol], the IC50 was 0.005 to 250 nM. Still for that read-out and setting: in the case of `Nc1n[nH]c2cc(Nc3nc4cccc(N[C@H]5CC[C@@H](O)CC5)n4n3)ccc12` [Example 216, cis-4-(2-(3-amino-1H-indazol-6-ylamino)-[1,2,4]triazolo[1,5-a]pyridin-5-ylamino)cyclohexanol] it was 0.005 to 250 nM. The same measure, in the same setting: in the case of `Cc1c2ccc(Nc3nc4cccc(N[C@H]5CC[C@@H](O)CC5)n4n3)cc2nn1C` [Example 217, cis-4-(2-(2,3-dimethyl-2H-indazol-6-ylamino)-[1,2,4]triazolo[1,5-a]pyridin-5-ylamino)cyclohexanol] it was 0.005 to 250 nM; in that of `Cc1nn(C)c2cc(Nc3nc4cccc(N[C@H]5CC[C@@H](O)CC5)n4n3)ccc12` [Example 218, cis-4-(2-(1,3-dimethyl-1H-indazol-6-ylamino)-[1,2,4]triazolo[1,5-a]pyridin-5-ylamino)cyclohexanol], 0.005 to 250 nM. The same measure, in the same setting: in the case of `Cc1cc(Nc2nc3cccc(Cc4ccnc(O)c4)n3n2)ccc1F` [Example 219, 4-((2-(4-fluoro-3-methylphenylamino)-[1,2,4]triazolo[1,5-a]pyridin-5-yl)methyl)pyridin-2-ol] it was 0.005 to 250 nM. For the compound `Cc1n[nH]c2cc(Nc3nc4cccc(NCC5CCOCC5)n4n3)ccc12` [Example 220, N^2-(3-methyl-1H-indazol-6-yl)-N^5-((tetrahydro-2H-pyran-4-yl)methyl)-[1,2,4]triazolo[1,5-a]pyridin-2,5-diamine], the 50% inhibitory concentration (IC50) was in the range of 250 to 500 nM. On the same count and under the same terms, in the case of `O=C1CN(Cc2cccc3nc(Nc4ccc(N5CCC(O)CC5)nc4)nn23)CCN1` [Example 221, 4-((2-(6-(4-hydroxypiperidin-1-yl)pyridin-3-ylamino)-[1,2,4]triazolo[1,5-a]pyridin-5-yl)methyl)piperazin-2-one] it was 500 to 1000 nM. Consider `C[C@H](NCc1cccc2nc(Nc3ccc(C(F)(F)F)cc3)nn12)C(N)=O` [Example 222, (S)-2-((2-(4-(trifluoromethyl)phenylamino)-[1,2,4]triazolo[1,5-a]pyridin-5-yl)methylamino)propanamide], for which the concentration for half-maximal inhibition (IC50) is 1000 to 10000 nM. Take `OC[C@]1(O)CC[C@@H](Nc2cccc3nc(Nc4ccc(C(F)(F)F)cc4)nn23)CC1` [Example 227, cis-1-(hydroxymethyl)-4-(2-(4-(trifluoromethyl)phenylamino)-[1,2,4]triazolo[1,5-a]pyridin-5-ylamino)cyclohexanol]: the 50% inhibitory concentration (IC50) lay within 0.005 to 250 nM.

Staying with this assay, now noted: read-out: Activity Level (Syk HTRF assay IC50).
For the compound `OCc1nc2ccc(Nc3nc4cccc(N[C@H]5CC[C@@H](O)CC5)n4n3)cc2[nH]1` [Example 195, cis-4-(2-(2-(hydroxymethyl)-1H-benzo[d]imidazol-6-ylamino)-[1,2,4]triazolo[1,5-a]pyridin-5-ylamino)cyclohexanol], the IC50 was in the range of 0.005 to 250 nM.

With `COCc1nc2ccc(Nc3nc4cccc(N[C@H]5CC[C@@H](O)CC5)n4n3)cc2[nH]1` [Example 196, cis-4-(2-(2-(methoxymethyl)-1H-benzo[d]imidazol-6-ylamino)-[1,2,4]triazolo[1,5-a]pyridin-5-ylamino)cyclohexyl], the IC50 was in the range of 0.005 to 250 nM.

As to `CCn1nc(C)c2ccc(Nc3nc4cccc(N[C@H]5CC[C@@H](O)CC5)n4n3)cc21` [Example 197, cis-4-(2-(1-ethyl-3-methyl-1H-indazol-6-ylamino)-[1,2,4]triazolo[1,5-a]pyridin-5-ylamino)cyclohexanol], the concentration for half-maximal inhibition (IC50) was 0.005 to 250 nM. Still for that read-out and setting: in the case of `O=C1c2ccc(Nc3nc4cccc(N[C@H]5CC[C@@H](O)CC5)n4n3)cc2CN1CCO` [Example 198, cis-5-(5-(4-hydroxycyclohexylamino)-[1,2,4]triazolo[1,5-a]pyridin-2-ylamino)-2-(2-hydroxyethyl)isoindolin-1-one] it was 0.005 to 250 nM.
